Measured values as given in patent publication US20220332764A1, “T CELL EPITOPES OF HCMV AND USES OF THEREOF” (EBERHARD KARLS UNIVERSITÄT TÜBINGEN, priority 2019, published 2022).
Where “and” joins values, the source holds several entries; their conditions need not be identical. Equal entries are not always repeated. Where two headings read alike, the source gives them in different places.

Tests used:
[1] = tested on: PBMCs of healthy HCMV-seropositive donors; experiment: ex vivo IFNγ ELISpot without prestimulation; format: cell-based, human; conditions: for % Positive donors (ex vivo): IFNγ ELISpot ex vivo, donors previously tested positive; for ELISpot response rate (ex vivo): donors positively tested in ELISpots with 12d stimulation
Excerpt: (§1) PHA was used as positive control.

[2] = tested on: PBMCs of healthy HCMV-seropositive donors; experiment: IFNγ ELISpot after 12 day stimulation (memory T-cell response); format: cell-based, human; conditions: for % Positive donors (after 12 days of stimulation): IFNγ ELISpot, HLA-matched seropositive donors; for ELISpot response rate (12 d stim.): 12-day amplification with IL-2 in vitro; for Positive donors as tested: positive / tested HLA-matched seropositive donors, positive: >10 spots/well and at least 3-fold negative control; for Binding to more than one HLA-I allotype: stimulated T cells of different donors harboring either of two well predicted alleles
Excerpt: as §1

[3] = tested on: CD8+ / CD4+ T cells of donor PBMCs; experiment: Intracellular cytokine staining (ICS; IFNγ, TNFα, CD107a); format: cell-based, human; conditions: for Intracellular staining: responding T-cell subset; for Intracellular cytokine staining: responding T-cell subset after peptide stimulation
Excerpt: PHA was used as positive control. […] (Cytofix/Cytoperm, BD Biosciences).

[4] = tested on: CD8+ T cells of HLA-matched healthy donors; conditions: for Tetramer-staining: after 12 day amplification

Row | Sequence | % Positive donors (ex vivo) [1] | % Positive donors (after 12 days of stimulation) [2] | Positive donors as tested [2] | Intracellular cytokine staining [3] | Tetramer-staining [4] | also measured
1 | HETGVYQMW (listed as Human cytomegalovirus) [SEQ ID NO: 41] | 62.5% | 65.4% | 17/26 | CD8 | Positive | ELISpot response rate (ex vivo) ([1]; Tested HLA B*44:02): 62.5; ELISpot response rate (12 d stim.) ([2]; Tested HLA B*44:02): 65.4; Intracellular staining ([3]; Tested HLA B*44:02): CD8; Tetramer staining ([4]; Tested HLA B*44:02): positive
2 | ALWDVALLEV (listed as Human cytomegalovirus) [SEQ ID NO: 2] | 25.0% | 71.4% | 10/14 | CD8 | Positive | ELISpot response rate (ex vivo) ([1]; Tested HLA A*02:01): 25.0; ELISpot response rate (12 d stim.) ([2]; Tested HLA A*02:01): 71.4; Intracellular staining ([3]; Tested HLA A*02:01): CD8; Tetramer staining ([4]; Tested HLA A*02:01): positive
3 | LPYPRGYTL (listed as Human cytomegalovirus) [SEQ ID NO: 99] | 16.7% and 33.3% | 68.8% and 62.5% | 11/16 and 10/16 | CD8 | positive | ELISpot response rate (ex vivo) ([1]; Tested HLA B*08:01): 16.7; ELISpot response rate (ex vivo) ([1]; Tested HLA B*51:01): 33.3; Response in mismatch ELISpots ([2]; B*08-/B*51− PBMC samples): showed responses; ELISpot response rate (12 d stim.) ([2]; Tested HLA B*08:01): 68.8; ELISpot response rate (12 d stim.) ([2]; Tested HLA B*51:01): 62.5; Binding to more than one HLA-I allotype [2]: potentially able to bind to more than one HLA-I allotype; Intracellular staining ([3]; Tested HLA B*08:01): CD8; Intracellular staining ([3]; Tested HLA B*51:01): CD8; HLA restriction demonstrated by tetramer stainings [4]: B*08 and B*51 restriction; Tetramer staining ([4]; Tested HLA B*08:01): positive; Tetramer staining ([4]; Tested HLA B*51:01): positive
4 | NTDFRVLELY (listed as Human cytomegalovirus) [SEQ ID NO: 55] | 0.0% | 56.3% | 9/16 | CD8 | Positive | ELISpot response rate (ex vivo) ([1]; Tested HLA A*01:01): 0.0; ELISpot response rate (12 d stim.) ([2]; Tested HLA A*01:01): 56.3; Intracellular staining ([3]; Tested HLA A*01:01): CD8; Tetramer staining ([4]; Tested HLA A*01:01): positive
5 | FPVEVRSHV (listed as Human cytomegalovirus) [SEQ ID NO: 88] | 0.0% | 65.2% | 15/23 | CD8 | Positive | ELISpot response rate (ex vivo) ([1]; Tested HLA B*51:01): 0.0; ELISpot response rate (12 d stim.) ([2]; Tested HLA B*51:01): 65.2; Intracellular staining ([3]; Tested HLA B*51:01): CD8; Tetramer staining ([4]; Tested HLA B*51:01): positive
6 | DEQVSKRSW (listed as Human cytomegalovirus) [SEQ ID NO: 42] | 12.5% | 45.8% | 11/24 | CD8 | Positive | –
7 | TLIVNLVEV (listed as Human cytomegalovirus) [SEQ ID NO: 3] | 25.0% | 55.0% | 11/20 | CD8 | Positive | ELISpot response rate (ex vivo) ([1]; Tested HLA A*02:01): 25.0; ELISpot response rate (12 d stim.) ([2]; Tested HLA A*02:01): 55.0; Intracellular staining ([3]; Tested HLA A*02:01): CD8; Tetramer staining ([4]; Tested HLA A*02:01): positive
8 | SPRHLYISL (listed as Human cytomegalovirus) [SEQ ID NO: 29] | 0.0% | 50.0% | 11/22 | CD4/CD8 | Positive | ELISpot response rate (ex vivo) ([1]; Tested HLA B*07:02): 0.0; ELISpot response rate (12 d stim.) ([2]; Tested HLA B*07:02): 50.0; Tetramer staining ([4]; Tested HLA B*07:02): positive
9 | YADPFFLKY (listed as Human cytomegalovirus) [SEQ ID NO: 51] | 90.9% | 100.0% | 15/15 | CD8 | Positive | ELISpot response rate (ex vivo) ([1]; Tested HLA A*01:01): 90.9; ELISpot response rate (12 d stim.) ([2]; Tested HLA A*01:01): 100.0; Intracellular staining ([3]; Tested HLA A*01:01): CD8; Tetramer staining ([4]; Tested HLA A*01:01): positive
10 | TPRVTGGGAM (listed as Human cytomegalovirus) [SEQ ID NO: 25] | 100.0% | 81.6% | 31/38 | CD8 | Positive | ELISpot response rate (ex vivo) ([1]; Tested HLA B*07:02): 100.0; ELISpot response rate (12 d stim.) ([2]; Tested HLA B*07:02): 81.6; Intracellular staining ([3]; Tested HLA B*07:02): CD8; Tetramer staining ([4]; Tested HLA B*07:02): positive
11 | SENGNLQVTY (listed as Human cytomegalovirus) [SEQ ID NO: 40] | 62.5% | 83.9% | 26/31 | CD8 | Positive | ELISpot response rate (ex vivo) ([1]; Tested HLA B*44:02): 62.5; ELISpot response rate (12 d stim.) ([2]; Tested HLA B*44:02): 83.9; Intracellular staining ([3]; Tested HLA B*44:02): CD8; Tetramer staining ([4]; Tested HLA B*44:02): positive
12 | SESEFIVRY (listed as Human cytomegalovirus) [SEQ ID NO: 43] | 37.5% | 40.0% | 8/20 | CD8 | Positive | –
13 | DARSRIHNV (listed as Human cytomegalovirus) [SEQ ID NO: 89] | – | 53.3% | 8/15 | CD8 | Positive | ELISpot response rate (ex vivo) ([1]; Tested HLA B*51:01): 20.0; ELISpot response rate (12 d stim.) ([2]; Tested HLA B*51:01): 53.3; Intracellular staining ([3]; Tested HLA B*51:01): CD8; Tetramer staining ([4]; Tested HLA B*51:01): positive
14 | GVLDAVWRV (listed as Human cytomegalovirus) [SEQ ID NO: 1] | 50.0% | 72.2% | 13/18 | CD8 | Positive | ELISpot response rate (ex vivo) ([1]; Tested HLA A*02:01): 50.0; ELISpot response rate (12 d stim.) ([2]; Tested HLA A*02:01): 72.2; Intracellular staining ([3]; Tested HLA A*02:01): CD8; Tetramer staining ([4]; Tested HLA A*02:01): positive
15 | RVKNRPIYR (listed as Human cytomegalovirus) [SEQ ID NO: 68] | 33.3% | 60.9% | 14/23 | CD8 | Positive | ELISpot response rate (ex vivo) ([1]; Tested HLA A*03:01): 33.3; ELISpot response rate (12 d stim.) ([2]; Tested HLA A*03:01): 60.9; Intracellular staining ([3]; Tested HLA A*03:01): CD8; Tetramer staining ([4]; Tested HLA A*03:01): positive
16 | LPHERHREL (listed as Human cytomegalovirus) [SEQ ID NO: 100] | 85.7% | – | 20/22 and 3/12 | CD8 | positive | ELISpot response rate (ex vivo) ([1]; Tested HLA B*08:01): 85.7; ELISpot response rate (12 d stim.) ([2]; Tested HLA B*08:01): 90.9; Binding to more than one HLA-I allotype [2]: potentially able to bind to more than one HLA-I allotype; Intracellular staining ([3]; Tested HLA B*08:01): CD8; Tetramer staining ([4]; Tested HLA B*08:01): positive
17 | GLYTQPRWK (listed as Human cytomegalovirus) [SEQ ID NO: 67] | 50.0% | 76.2% | 16/21 | CD8 | Positive | ELISpot response rate (ex vivo) ([1]; Tested HLA A*03:01): 50.0; ELISpot response rate (12 d stim.) ([2]; Tested HLA A*03:01): 76.2; Intracellular staining ([3]; Tested HLA A*03:01): CD8; Tetramer staining ([4]; Tested HLA A*03:01): positive
18 | FLDENFKQL (listed as Human cytomegalovirus) [SEQ ID NO: 5] | 37.5% | 47.6% | 10/21 | CD4 | Negative | –
19 | SPSRDRFVQL (listed as Human cytomegalovirus) [SEQ ID NO: 27] | 33.3% | 66.7% | 14/21 | Nega- | Positive | ELISpot response rate (ex vivo) ([1]; Tested HLA B*07:02): 33.3; ELISpot response rate (12 d stim.) ([2]; Tested HLA B*07:02): 66.7; Tetramer staining ([4]; Tested HLA B*07:02): positive
